From ChEMBL document CHEMBL1201862, “PubChem BioAssay data set” (2004)
Calls of active or inactive are those of the source.

Legend:
[1] = target: T1, G-protein coupled receptor 55 (Homo sapiens, UniProt Q9Y2T6); assay: GPR55 antagonists blocking LPI-driven arrestin recruitment, primary screen, imaging, U2OS, beta-arrestin-GFP, LPI agonist (AID 2013); format: functional;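 further: antagonist potency measured as reduced agonist-driven arrestin aggregation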
[2] = target: Peroxisome proliferator-activated receptor gamma/Nuclear receptor coactivator 1 (Homo sapiens, UniProt P37231); assay: (§1) TR-FRET dose response biochemical High Throughput Screening assay for agonists of the steroid receptor coactivator 1 (SRC-1) recruitment by the peroxisome proliferator-activated receptor gamma (PPAR gamma): non-selective agonists. [Related pubchem assays (depositor defined):AID1300, AID1808, AID504735, AID631]; format: protein assay
[3] = target: Peroxisome proliferator-activated receptor gamma/Nuclear receptor coactivator 3 (Homo sapiens, UniProt P37231); assay: as §1, with “3 (SRC-3)” for “1 (SRC-1)”, “assays: 1301 (Confirmation screen.), 1048 (Primary screen.)]” for “assays (depositor defined):AID1300, AID1808, AID504735, AID631]”; format: functional
[4] = target: Peroxisome proliferator-activated receptor gamma/Nuclear receptor coactivator 2 (Homo sapiens, UniProt P37231); assay: TR-FRET dose response biochemical High Throughput Screening assay for agonists of the steroid receptor coactivator 2 (SRC-2) recruitment by the peroxisome proliferator-activated receptor gamma (PPAR gamma): non-selective agonists. [Related pubchem assays: 1297, 1032 ]; format: functional
[5] = tested on: Vero; assay: cells; format: functional, cell-based; conditions: Chlorocebus sabaeus
[6] = tested on: Vero; assay: cells; format: functional; conditions: Chlorocebus sabaeus
[7] = target: Cytochrome P450 3A4 (Homo sapiens, UniProt P08684);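 further: CYP3A4 tested as one member of a cytochrome P450 panel screen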
[8] = target: Glyceraldehyde-3-phosphate dehydrogenase (Homo sapiens, UniProt P04406)
[9] = target: T2, Alkaline phosphatase, tissue-nonspecific isozyme (Homo sapiens, UniProt P05186); assay: human TNAP enzyme inhibitors, SAR follow-up, biochemical, luminescent, dose response (AID 1056)
T2 sequence (P05186 whole entry): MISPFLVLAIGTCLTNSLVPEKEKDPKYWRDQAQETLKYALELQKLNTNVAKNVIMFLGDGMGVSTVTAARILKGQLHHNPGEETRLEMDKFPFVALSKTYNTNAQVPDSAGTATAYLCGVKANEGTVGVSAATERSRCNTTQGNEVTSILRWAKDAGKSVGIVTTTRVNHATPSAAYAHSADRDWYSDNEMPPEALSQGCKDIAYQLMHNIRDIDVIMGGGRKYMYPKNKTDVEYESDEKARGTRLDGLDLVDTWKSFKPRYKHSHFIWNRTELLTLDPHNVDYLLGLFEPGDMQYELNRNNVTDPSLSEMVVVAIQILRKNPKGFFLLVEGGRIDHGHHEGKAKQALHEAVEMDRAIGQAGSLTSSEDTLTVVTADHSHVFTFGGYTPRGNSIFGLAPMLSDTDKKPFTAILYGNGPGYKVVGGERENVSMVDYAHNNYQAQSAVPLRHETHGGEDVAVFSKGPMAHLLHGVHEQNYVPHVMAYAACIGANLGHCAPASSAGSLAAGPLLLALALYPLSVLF

[10] = target: T3, Aminopeptidase N (Plasmodium falciparum FcB1/Columbia, UniProt O96935); assay: P. falciparum M1AAP inhibitors, biochemical, fluorogenic H-Leu-NHMec substrate, 1536-well (AID 1445); set-up: species or system Plasmodium falciparum 3D7, 3D7
T3 sequence (O96935 whole entry): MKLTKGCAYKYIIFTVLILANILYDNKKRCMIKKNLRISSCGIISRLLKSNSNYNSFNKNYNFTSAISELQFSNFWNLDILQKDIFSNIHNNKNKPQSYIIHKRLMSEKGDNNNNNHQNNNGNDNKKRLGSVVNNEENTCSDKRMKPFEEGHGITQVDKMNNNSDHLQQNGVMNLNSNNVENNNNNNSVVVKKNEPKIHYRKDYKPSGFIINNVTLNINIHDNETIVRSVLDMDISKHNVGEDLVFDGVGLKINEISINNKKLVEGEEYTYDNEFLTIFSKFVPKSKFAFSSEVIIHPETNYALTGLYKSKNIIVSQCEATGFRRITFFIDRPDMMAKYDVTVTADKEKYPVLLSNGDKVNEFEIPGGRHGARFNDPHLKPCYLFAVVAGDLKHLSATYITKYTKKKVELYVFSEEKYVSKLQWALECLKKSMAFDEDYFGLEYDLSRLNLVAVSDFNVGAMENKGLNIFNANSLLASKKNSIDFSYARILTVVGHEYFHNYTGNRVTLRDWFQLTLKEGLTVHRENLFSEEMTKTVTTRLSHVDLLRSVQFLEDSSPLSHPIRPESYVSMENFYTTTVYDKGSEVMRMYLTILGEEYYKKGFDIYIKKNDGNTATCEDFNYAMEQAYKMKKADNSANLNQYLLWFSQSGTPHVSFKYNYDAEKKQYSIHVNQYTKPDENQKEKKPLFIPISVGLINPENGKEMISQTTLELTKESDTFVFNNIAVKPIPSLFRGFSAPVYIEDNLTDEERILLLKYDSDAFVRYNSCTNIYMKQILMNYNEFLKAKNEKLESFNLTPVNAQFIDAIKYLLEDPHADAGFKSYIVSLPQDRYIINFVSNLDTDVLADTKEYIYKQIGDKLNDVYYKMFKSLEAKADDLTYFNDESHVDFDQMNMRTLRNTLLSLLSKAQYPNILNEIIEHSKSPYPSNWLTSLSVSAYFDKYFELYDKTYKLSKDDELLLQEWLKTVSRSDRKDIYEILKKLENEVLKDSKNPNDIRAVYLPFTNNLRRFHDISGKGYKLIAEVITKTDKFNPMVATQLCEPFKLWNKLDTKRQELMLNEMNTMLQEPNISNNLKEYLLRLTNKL

[11] = target: T4, Bcl-2-related protein A1 (Mus musculus, UniProt Q07440); format: functional;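 further: confirmatory dose–response counterscreen on Bfl-1, used to check hits from a UBC13 polyubiquitin inhibitor campaign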
T4 sequence (Q07440 whole entry): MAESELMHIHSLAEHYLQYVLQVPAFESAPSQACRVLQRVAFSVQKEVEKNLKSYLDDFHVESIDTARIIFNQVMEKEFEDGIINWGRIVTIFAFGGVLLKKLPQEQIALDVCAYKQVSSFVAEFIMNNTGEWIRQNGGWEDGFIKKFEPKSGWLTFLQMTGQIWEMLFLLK

[12] = target: T5, Ubiquitin-conjugating enzyme E2 N (Homo sapiens, UniProt P61088); format: functional
T5 sequence (P61088 whole entry): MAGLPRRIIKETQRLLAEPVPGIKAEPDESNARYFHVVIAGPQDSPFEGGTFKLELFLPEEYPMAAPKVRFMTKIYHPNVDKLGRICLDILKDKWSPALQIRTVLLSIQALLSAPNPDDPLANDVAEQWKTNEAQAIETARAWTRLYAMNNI

[13] = target: T5, Ubiquitin-conjugating enzyme E2 N; format: functional; remark: listed apart in the source
[14] = tested on: Streptococcus sp. 'group A'; assay: growth inhibition of control SK(-) GAS strain, dose response, counter-screen for streptokinase expression inhibitor project, luminescence, kanamycin, BacTiterGlo, confirmation (AID 1900); format: functional, organism-based
[15] = target: T6, Streptokinase A (Streptococcus pyogenes serotype M1, UniProt P10520); assay: S. pyogenes streptokinase expression inhibitors, potency, dose response, plasminogen activation absorbance, OD405 (AID 1914); format: functional, Streptococcus pyogenes M1 GAS;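 further: secreted streptokinase activity via plasminogen activation per viability signal from cell pellet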
T6 sequence (P10520 whole entry): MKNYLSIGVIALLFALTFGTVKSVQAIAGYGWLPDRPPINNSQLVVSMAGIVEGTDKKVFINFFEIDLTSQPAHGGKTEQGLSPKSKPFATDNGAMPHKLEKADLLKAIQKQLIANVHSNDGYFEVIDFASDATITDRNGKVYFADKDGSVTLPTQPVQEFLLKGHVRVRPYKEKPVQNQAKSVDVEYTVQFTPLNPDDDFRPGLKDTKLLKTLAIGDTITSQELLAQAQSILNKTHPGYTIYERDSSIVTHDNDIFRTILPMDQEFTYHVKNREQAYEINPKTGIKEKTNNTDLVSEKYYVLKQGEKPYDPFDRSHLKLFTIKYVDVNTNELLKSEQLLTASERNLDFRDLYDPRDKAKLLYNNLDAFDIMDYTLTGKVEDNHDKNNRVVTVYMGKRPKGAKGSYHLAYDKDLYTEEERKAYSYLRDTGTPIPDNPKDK

[16] = cytotoxicity in HPDE-C7 cells, cell-based, fluorescence, HTS (AID 430); format: functional; conditions: Homo sapiens
[17] = cytotoxicity in KRAS-transformed pancreatic duct cells, primary screen, cell-based, fluorescence, HTS (AID 431); format: functional; conditions: Homo sapiens;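 further: cell line used: HPDE-C7K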
[18] = tested on: Streptococcus; assay: Group A Streptococcus viability loss, dose response, counter-screen for streptokinase expression inhibitor project, luminescence, BacTiterGlo (AID 1915); format: functional, organism-based;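 further: potency for reduction of bacterial viability or growth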
[19] = target: T1, G-protein coupled receptor 55; assay: GPR55 agonists via beta-arrestin recruitment, primary screen, imaging, U2OS cells, beta-arrestin-GFP redistribution (AID 1961); format: functional
[20] = target: Voltage-dependent T-type calcium channel subunit alpha-1H (Homo sapiens, UniProt O95180); format: functional;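 further: channel activity triggered by adding a high calcium stimulation buffer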
[21] = target: T7, Galanin receptor type 3 (Homo sapiens, UniProt O60755); assay: Fluorescence-based cell-based primary high throughput dose response assay to identify antagonists of the Galanin Receptor 3 (GalR3).; format: functional
T7 sequence (O60755 whole entry): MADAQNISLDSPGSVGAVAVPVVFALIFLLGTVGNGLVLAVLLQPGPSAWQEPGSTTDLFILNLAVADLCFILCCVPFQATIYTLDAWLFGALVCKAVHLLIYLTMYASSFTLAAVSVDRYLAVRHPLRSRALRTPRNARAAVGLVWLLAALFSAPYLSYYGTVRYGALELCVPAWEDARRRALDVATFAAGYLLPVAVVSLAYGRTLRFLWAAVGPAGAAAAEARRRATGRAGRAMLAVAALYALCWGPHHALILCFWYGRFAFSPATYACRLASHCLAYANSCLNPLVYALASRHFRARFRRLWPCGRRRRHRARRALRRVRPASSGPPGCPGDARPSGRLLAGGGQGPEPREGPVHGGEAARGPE

[22] = cells; format: functional, cell-based; conditions: HEK-CNG
[23] = target: T8, Endoribonuclease toxin MazF (Escherichia coli K-12, UniProt P0AE70); assay: MazF toxin RNase activators, dose response, biochemical, fluorescence, single-stranded RNA substrate, uHTS hits (AID 588481); format: functional
T8 sequence (P0AE70 whole entry): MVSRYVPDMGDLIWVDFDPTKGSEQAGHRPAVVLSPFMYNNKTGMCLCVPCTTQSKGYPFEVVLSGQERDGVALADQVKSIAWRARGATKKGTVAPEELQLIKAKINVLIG

[24] = target: T8, Endoribonuclease toxin MazF; assay: fluorescent RNA oligo signal without MazF, dose response, counter-screen for MazEF activator project, biochemical, fluorescence, single-stranded RNase substrate (AID 588502); format: functional

Chain of Glyceraldehyde-3-phosphate dehydrogenase (P04406 whole entry): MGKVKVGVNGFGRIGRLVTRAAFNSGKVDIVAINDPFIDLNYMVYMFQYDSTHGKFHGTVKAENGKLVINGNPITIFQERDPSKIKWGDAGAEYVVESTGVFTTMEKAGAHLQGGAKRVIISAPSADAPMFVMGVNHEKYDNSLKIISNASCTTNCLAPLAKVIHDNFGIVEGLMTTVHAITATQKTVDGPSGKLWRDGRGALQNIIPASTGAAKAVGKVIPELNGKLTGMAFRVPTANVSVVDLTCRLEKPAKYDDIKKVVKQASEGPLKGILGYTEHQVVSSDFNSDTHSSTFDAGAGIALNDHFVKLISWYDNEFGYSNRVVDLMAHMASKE
Chain of Peroxisome proliferator-activated receptor gamma/Nuclear receptor coactivator 3 (P37231 whole entry): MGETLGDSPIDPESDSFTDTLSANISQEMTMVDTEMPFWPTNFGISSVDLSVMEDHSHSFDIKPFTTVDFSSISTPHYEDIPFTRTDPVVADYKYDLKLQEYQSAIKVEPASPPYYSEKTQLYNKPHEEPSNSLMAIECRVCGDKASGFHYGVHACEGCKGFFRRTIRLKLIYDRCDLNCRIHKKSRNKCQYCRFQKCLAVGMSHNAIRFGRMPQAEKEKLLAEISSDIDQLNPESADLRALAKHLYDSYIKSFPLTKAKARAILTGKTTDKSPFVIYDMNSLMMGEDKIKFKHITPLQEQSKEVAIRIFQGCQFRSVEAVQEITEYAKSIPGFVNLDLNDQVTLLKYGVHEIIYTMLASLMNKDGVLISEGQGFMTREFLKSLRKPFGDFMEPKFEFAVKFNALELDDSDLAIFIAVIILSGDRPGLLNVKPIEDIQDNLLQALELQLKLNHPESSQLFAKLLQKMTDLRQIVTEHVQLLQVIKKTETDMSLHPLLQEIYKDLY
Chain of Peroxisome proliferator-activated receptor gamma/Nuclear receptor coactivator 3 (Q9Y6Q9 whole entry, further chain): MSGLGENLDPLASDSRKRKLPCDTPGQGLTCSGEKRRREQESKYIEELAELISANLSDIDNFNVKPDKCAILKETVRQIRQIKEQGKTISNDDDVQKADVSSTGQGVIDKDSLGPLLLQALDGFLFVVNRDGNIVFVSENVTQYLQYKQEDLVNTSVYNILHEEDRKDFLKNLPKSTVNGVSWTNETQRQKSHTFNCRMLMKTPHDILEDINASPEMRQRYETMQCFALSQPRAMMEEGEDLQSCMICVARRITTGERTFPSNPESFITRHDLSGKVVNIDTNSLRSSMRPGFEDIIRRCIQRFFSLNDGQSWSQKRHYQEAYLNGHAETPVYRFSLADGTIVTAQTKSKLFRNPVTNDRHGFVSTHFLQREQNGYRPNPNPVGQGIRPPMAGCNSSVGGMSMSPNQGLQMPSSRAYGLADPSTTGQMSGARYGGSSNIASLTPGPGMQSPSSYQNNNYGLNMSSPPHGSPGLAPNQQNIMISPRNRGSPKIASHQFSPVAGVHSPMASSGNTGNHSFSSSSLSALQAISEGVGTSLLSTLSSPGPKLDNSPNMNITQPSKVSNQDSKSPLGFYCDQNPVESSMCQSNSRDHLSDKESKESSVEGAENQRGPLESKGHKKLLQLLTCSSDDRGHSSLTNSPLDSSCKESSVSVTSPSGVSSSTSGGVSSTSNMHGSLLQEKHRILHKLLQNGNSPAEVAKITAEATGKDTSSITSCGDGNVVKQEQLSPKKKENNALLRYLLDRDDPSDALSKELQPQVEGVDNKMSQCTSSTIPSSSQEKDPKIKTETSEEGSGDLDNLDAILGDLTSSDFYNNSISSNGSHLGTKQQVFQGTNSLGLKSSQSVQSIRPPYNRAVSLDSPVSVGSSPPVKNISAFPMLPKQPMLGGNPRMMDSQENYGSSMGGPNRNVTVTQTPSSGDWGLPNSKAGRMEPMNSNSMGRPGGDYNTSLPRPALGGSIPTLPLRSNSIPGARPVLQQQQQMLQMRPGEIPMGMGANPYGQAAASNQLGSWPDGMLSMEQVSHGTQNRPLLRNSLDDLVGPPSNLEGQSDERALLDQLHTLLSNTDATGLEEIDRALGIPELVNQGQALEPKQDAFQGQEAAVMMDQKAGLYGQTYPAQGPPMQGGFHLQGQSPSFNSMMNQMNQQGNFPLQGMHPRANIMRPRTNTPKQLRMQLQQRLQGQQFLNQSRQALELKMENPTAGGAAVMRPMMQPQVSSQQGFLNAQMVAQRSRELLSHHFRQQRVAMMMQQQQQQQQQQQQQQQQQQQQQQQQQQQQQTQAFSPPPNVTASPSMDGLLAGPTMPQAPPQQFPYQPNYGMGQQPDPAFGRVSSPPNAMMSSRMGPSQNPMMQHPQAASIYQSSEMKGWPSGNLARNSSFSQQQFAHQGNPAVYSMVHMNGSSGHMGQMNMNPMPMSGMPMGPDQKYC
Chain of Peroxisome proliferator-activated receptor gamma/Nuclear receptor coactivator 1 (P37231 whole entry): as the sequence (P37231 whole entry) above
Chain of Peroxisome proliferator-activated receptor gamma/Nuclear receptor coactivator 1 (Q15788 whole entry, further chain): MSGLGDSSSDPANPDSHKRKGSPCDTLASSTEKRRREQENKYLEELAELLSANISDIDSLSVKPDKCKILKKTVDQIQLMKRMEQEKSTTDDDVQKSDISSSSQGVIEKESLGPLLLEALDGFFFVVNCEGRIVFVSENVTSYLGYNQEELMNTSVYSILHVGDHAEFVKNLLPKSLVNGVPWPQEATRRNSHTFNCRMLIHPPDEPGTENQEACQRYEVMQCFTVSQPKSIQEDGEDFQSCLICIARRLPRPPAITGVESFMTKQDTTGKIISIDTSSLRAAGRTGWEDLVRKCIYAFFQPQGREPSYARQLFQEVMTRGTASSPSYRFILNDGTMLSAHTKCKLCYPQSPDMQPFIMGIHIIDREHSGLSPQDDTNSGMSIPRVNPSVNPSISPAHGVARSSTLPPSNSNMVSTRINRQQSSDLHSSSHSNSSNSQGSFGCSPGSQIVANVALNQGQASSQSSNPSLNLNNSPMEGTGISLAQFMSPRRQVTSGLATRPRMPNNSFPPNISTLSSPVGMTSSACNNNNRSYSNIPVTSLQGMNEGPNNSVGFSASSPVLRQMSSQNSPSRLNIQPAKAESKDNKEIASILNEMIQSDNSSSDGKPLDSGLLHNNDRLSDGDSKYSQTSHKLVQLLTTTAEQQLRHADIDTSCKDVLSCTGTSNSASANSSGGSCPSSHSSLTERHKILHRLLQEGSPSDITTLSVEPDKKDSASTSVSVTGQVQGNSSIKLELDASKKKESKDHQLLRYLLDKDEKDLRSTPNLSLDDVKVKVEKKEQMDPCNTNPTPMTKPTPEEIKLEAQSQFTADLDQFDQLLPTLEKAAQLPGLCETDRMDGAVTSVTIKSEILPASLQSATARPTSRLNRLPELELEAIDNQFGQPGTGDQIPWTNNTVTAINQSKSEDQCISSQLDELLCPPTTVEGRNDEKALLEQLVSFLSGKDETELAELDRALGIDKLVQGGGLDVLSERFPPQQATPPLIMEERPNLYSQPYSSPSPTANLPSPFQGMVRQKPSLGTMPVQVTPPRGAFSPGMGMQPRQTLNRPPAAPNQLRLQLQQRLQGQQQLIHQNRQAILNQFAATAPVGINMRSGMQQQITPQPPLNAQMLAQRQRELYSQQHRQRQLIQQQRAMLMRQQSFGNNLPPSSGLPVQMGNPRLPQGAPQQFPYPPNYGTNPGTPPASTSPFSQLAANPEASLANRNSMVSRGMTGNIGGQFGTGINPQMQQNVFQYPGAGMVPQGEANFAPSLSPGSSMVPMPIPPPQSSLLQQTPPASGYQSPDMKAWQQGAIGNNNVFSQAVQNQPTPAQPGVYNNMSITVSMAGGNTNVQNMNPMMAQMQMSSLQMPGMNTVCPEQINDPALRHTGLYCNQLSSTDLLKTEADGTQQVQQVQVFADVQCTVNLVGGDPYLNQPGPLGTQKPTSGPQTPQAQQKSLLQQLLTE
T1 sequence (Q9Y2T6 whole entry): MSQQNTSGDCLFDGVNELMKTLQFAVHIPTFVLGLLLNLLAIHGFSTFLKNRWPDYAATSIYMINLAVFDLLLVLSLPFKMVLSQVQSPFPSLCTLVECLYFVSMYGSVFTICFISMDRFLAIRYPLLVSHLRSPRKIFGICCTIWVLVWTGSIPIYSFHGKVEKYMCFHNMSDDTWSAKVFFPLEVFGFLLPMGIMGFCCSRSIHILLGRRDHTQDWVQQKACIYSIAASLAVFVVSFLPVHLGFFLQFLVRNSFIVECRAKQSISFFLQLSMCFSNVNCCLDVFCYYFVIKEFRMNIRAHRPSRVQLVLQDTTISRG
Chain of Cytochrome P450 3A4 (P08684 whole entry): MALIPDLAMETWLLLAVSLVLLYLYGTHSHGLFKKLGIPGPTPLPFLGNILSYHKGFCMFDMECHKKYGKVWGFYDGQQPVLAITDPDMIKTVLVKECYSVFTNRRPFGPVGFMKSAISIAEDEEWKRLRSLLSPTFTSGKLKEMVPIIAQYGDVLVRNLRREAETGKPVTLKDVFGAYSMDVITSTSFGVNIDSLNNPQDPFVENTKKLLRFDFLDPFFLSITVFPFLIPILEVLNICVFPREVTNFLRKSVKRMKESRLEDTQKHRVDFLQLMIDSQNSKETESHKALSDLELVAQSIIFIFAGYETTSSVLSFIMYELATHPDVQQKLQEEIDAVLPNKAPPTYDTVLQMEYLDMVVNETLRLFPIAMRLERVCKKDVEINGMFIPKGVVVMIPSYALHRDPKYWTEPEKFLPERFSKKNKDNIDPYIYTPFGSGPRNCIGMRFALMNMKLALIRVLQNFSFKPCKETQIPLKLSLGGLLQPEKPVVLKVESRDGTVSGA

For CN1C(=O)/C(=C/c2c[nH]nc2-c2ccccc2)SC1=S, the IC50 [1] was 0.653 µM (active).
In the case of CC(C)Sc1oc(-c2ccco2)nc1S(=O)(=O)c1ccccc1, the EC50 [2] is reported as 6.48 µM (active), the EC50 [3] is reported as > 79.4 µM (not active) and the EC50 [4] is reported as 9.32 µM (active).
With COc1cccc(-c2ccc(NC(=O)C3CCCN(Cc4cnc(C)n4C)C3)cc2)c1 (stereo not given) the IC50 [5] was 20.3 µM (active) and the CC50 [6] was > 25 µM (active).
For O=c1c(Cl)c(N2CCN(S(=O)(=O)c3ccc(F)cc3)CC2)cnn1-c1cccc(Cl)c1, the EC50 [2] was 9.63 µM (active), the EC50 [3] was 18.7 µM (not active) and the EC50 [4] was 9.06 µM (active). For the same compound, the AC50 [7] was 20 µM (inconclusive).
For ClCc1csc(-c2ccccc2Cl)n1, the EC50 [2] was > 79.4 µM (inactive), the EC50 [3] was > 79.4 µM (not active) and the EC50 [4] was > 79.4 µM (not active).
With COc1cc(N(O)O)ccc1S(=O)(=O)Nc1cnc2ccccc2c1 the IC50 [8] was > 100 µM (not active) and the IC50 [9] was 0.74 µM (active).
With CCCN(CCC)C(=O)CSc1nc2c(sc(=S)n2-c2ccc(OCC)cc2)c(=O)[nH]1 the IC50 [10] was 68.3 µM (active) and the IC50 [1] was 1.77 µM (active).
For O=C(c1cccc(S(=O)(=O)N2CCCC2)c1)N1CCCC(C(F)(F)F)C1 (stereo not given), the IC50 [11] was > 20 µM (inactive), the IC50 [12] was 10.7 µM (active) and the IC50 [13] was 8.31 µM (active).
For CCCCCn1c(CN2CCN(c3cc(Cl)ccc3C)CC2)nc2c1c(=O)[nH]c(=O)n2C, the EC50 [14] was 4.65 µM (active), the EC50 [15] was > 150 µM (not active) and the EC50 [16] was 12.8 µM (active). For the same compound, the EC50 [17] was > 20 µM (not active), the EC50 [18] was 5.85 µM (active) and the EC50 [19] was 4.7 µM (active). For the same compound, the EC50 [20] was 5.57 µM (active) and the AC50 [7] was 2.24 µM (inconclusive).
For O=C(NCC1CCN(Cc2ccc(Cl)cc2)CC1)C1CCCN(c2ncnc3c2nc2n3CCCCC2)C1 (stereo not given), the IC50 [11] was > 20 µM (inactive), the IC50 [12] was 7.67 µM (active) and the IC50 [13] was 8.14 µM (active). For the same compound, the IC50 [21] was > 29.9 µM (inactive) and the EC50 [22] was > 29.9 µM (inactive).
For COc1ccc(OC)c(C(=O)Nc2cnc3ccccc3c2)c1, the IC50 [8] was > 100 µM (not active) and the IC50 [9] was > 100 µM (inactive).
In the case of CCCn1c(SCC(=O)Nc2nc3ccccc3s2)nc2c1c(=O)n(C)c(=O)n2C, the EC50 [23] is reported as > 99 µM (inactive) and the EC50 [24] is reported as > 99 µM (inactive).
In the case of CCc1ccc(OC)c(S(=O)(=O)Nc2cccnc2)c1, the IC50 [8] is reported as > 100 µM (not active) and the IC50 [9] is reported as 1.72 µM (active).
In the case of N#C/C(=C/C1=C(N2CCOCC2)C(=C/c2cccc([N+](=O)[O-])c2)/CC1)C(=O)Nc1ccccc1F, the EC50 [23] is reported as > 99 µM (inactive) and the EC50 [24] is reported as > 99 µM (inactive).
With Cc1ccc(N(Cc2ccccc2)C(=O)CSC(C)C(=O)Nc2cc(C)on2)cc1 (stereo not given) the IC50 [5] was 15.6 µM (active) and the CC50 [6] was 23.3 µM (active).
For Cn1ncc(/N=C/c2c(O)ccc3ccccc23)c1C(=O)Nc1cccc(Cl)c1, the EC50 [23] was 26.2 µM (inactive) and the EC50 [24] was 94.5 µM (inactive).
